Where two headings read alike, the source gives them in different places.

The values that follow come from patent US20160137639A1, “TRIAZOLE-ISOXAZOLE COMPOUND AND MEDICAL USE THEREOF” (JAPAN TOBACCO INC., priority 2012, published 2016).

One assay addresses T1, human RORγ (Homo sapiens, UniProt P51449).
T1 construct: human, NM_005060.3 and from Ser253 to Lys518; expressed in transfected cells; host or cells: CHO cells (transient co-transfection with pG5-Luc reporter)
T1 sequence (P51449 253-518): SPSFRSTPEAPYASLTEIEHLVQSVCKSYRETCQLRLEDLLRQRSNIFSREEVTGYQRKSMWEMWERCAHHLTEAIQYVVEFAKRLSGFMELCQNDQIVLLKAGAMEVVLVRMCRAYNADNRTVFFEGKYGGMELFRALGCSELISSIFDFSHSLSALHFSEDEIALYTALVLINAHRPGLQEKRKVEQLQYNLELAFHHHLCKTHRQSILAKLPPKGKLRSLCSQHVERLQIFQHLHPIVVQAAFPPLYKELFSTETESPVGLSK
The assay can be described thus: Luciferase reporter gene assay of inhibitory effect against RORγ transcriptional activity (GAL4-hRORγ plasmid in CHO cells). The format is cell-based.

In another assay the target is T2, mouse RORγ (Mus musculus, UniProt P51450).
T2 construct: mouse, NM_011281.2 and from Ile251 to Lys516; expressed in transfected cells; host or cells: CHO cells (transient co-transfection with pG5-Luc reporter)
T2 sequence (P51450 251-516): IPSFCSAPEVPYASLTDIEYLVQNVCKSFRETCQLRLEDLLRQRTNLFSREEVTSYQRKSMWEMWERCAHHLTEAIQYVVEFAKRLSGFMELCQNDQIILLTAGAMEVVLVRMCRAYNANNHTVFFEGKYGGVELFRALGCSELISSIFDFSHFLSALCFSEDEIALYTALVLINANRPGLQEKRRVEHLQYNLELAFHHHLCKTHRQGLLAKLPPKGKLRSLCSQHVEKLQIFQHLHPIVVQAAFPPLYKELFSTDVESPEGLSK
The assay can be described thus: Luciferase reporter gene assay of inhibitory effect against RORγ transcriptional activity (GAL4-mRORγ plasmid in CHO cells). The class given is cell-based. The procedure, abridged:
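CHO cells transiently co-transfected with GAL4-mouse RORγ LBD (Ile251–Lys516) and GAL4-dependent luciferase reporter; eight compound concentrations, 0.1% DMSO, 2 days at 37 °C. Luminescence as %-of-vehicle control; EC50 by curve fit, cytotoxic concentrations excluded.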
For orientation: Reporter assays use an easily measured gene product as a stand-in for the process of interest.

What is called EC50 is the concentration giving half of the maximal effect. `CC1(Cc2cc(-c3onc([C@@H](CCC(=O)O)CC(=O)Nc4ccc(Cl)cc4F)c3C3CC3)no2)CC1` [Example E-64]: the EC50 on human RORγ (read-out: LUC EC50 (μM) hRORg) and at mouse RORγ (read-out: LUC EC50 (μM) mRORg) was less than 3 µM throughout.
As for `Cc1cnccc1NC(=O)CCc1nnc(CCC(C)C)n1C1CC1` [Example F-89], the EC50 on human RORγ (read-out: LUC EC50 (μM) hRORg) and on mouse RORγ (read-out: LUC EC50 (μM) mRORg) was greater than 3 µM each time.
With `Cc1c(Cl)cccc1NC(=O)CCc1nnc(CN2C(=O)c3ccccc3C2=O)n1C1CC1` [Example F-209], the EC50 on human RORγ (read-out: LUC EC50 (μM) hRORg) and at mouse RORγ (read-out: LUC EC50 (μM) mRORg) was greater than 3 µM each time.
For `Cc1c(Cl)cccc1NC(=O)CC(CCCO)c1nnc(CCCC(C)C)n1C1CC1` (racemic) [Example F-212], the EC50 at human RORγ (read-out: LUC EC50 (μM) hRORg) and on mouse RORγ (read-out: LUC EC50 (μM) mRORg) was less than 3 µM each time.
For the compound `Cc1c(Cl)cccc1NC(=O)CCc1nnc(CCC(=O)O)n1C1CC1` [Example F-185], the EC50 on human RORγ (read-out: LUC EC50 (μM) hRORg) and on mouse RORγ (read-out: LUC EC50 (μM) mRORg) was greater than 3 µM throughout.
Regarding `CCC(C)CCc1nnc(CCC(=O)Nc2cccc(Cl)c2C)n1C1CC1` (racemic) [Example F-235], the EC50 on human RORγ (read-out: LUC EC50 (μM) hRORg) and at mouse RORγ (read-out: LUC EC50 (μM) mRORg) was less than 3 µM each time.
For the compound `CCn1c(CCC(=O)Nc2cc(C)cc(C)c2)nnc1CCC1CCCCC1` [Example F-38], the EC50 at human RORγ (read-out: LUC EC50 (μM) hRORg) is less than 3 µM; on mouse RORγ (read-out: LUC EC50 (μM) mRORg), greater than 3 µM.
Taken in the same sequence, the figures for `CC(C)CCc1nnc(CCC(=O)NC2CCc3ccccc32)n1C1CC1` (racemic) [Example F-83] were greater than 3 µM and greater than 3 µM.
Taken in the same sequence, the figures for `COc1cc(C)ccc1CNC(=O)[C@H]1CCN(C(C)=O)[C@@H]1c1nnc(CCC2CCCCC2)n1C1CC1` [Example F-228] were less than 3 µM and less than 3 µM.
Taken in the same sequence, the figures for `Cc1ccc(NC(=O)[C@H]2CC(=O)N(C)[C@@H]2c2nnc(CCCC(C)(C)C)n2C2CC2)c(C)c1` [Example F-388] were less than 3 µM and less than 3 µM.
On to `COc1cc(C)ccc1CNC(=O)[C@H]1CCN(C(C)=O)[C@@H]1c1nnc(CCCC(C)(C)C)n1C1CC1` [Example F-297], for which the EC50 on human RORγ (read-out: LUC EC50 (μM) hRORg) and on mouse RORγ (read-out: LUC EC50 (μM) mRORg) was less than 3 µM throughout.
With `Cc1ccc(NC(=O)[C@H]2CN(S(=O)(=O)C(C)C)C[C@@H]2c2nnc([C@H]3C[C@@H](CC(C)(C)C)C3)n2C2CC2)c(C)c1` [Example F-552], the EC50 on human RORγ (read-out: LUC EC50 hRORg) and on mouse RORγ (read-out: LUC EC50 mRORg) was less than 3 µM throughout.
As to `Cc1ccc(NC(=O)C[C@H](OCC(C)C)c2nnc([C@H]3C[C@@H](CC(C)C)C3)n2C2CC2)c(C)c1` [Example F-582], the EC50 on human RORγ (read-out: LUC EC50 hRORg) and on mouse RORγ (read-out: LUC EC50 mRORg) was less than 3 µM throughout.
For the compound `Cc1ccc(NC(=O)CC(CO)c2nnc(CCCC(C)C)n2C2CC2)c(C)c1` (racemic) [Example F-271], the EC50 on human RORγ (read-out: LUC EC50 (μM) hRORg) and on mouse RORγ (read-out: LUC EC50 (μM) mRORg) was less than 3 µM in each case.
`Cc1ccc(NC(=O)CCc2nnc(CCC3CCCCC3)n2C2CC2(F)F)c(C)c1` (racemic) [Example F-211]: the EC50 at human RORγ (read-out: LUC EC50 (μM) hRORg) and on mouse RORγ (read-out: LUC EC50 (μM) mRORg) was less than 3 µM each time.
On to `Cc1ccc(NC(=O)CCc2nnc([C@H]3C[C@@H](CCC(C)C)C3)n2C2CC2)c(C)c1` [Example F-444], for which the EC50 on human RORγ (read-out: LUC EC50 (μM) hRORg) and on mouse RORγ (read-out: LUC EC50 (μM) mRORg) was less than 3 µM throughout.
As for `Cc1ccc(NC(=O)C[C@@H](c2nnc([C@H]3C[C@@H](CC(C)C)C3)n2C2CC2)N(C)C)c(C)c1` [Example F-516], the EC50 on human RORγ (read-out: LUC EC50 hRORg) and on mouse RORγ (read-out: LUC EC50 mRORg) was less than 3 µM in each case.
Take `Cc1ccc(NC(=O)C[C@H](CCC(=O)O)c2cc([C@H]3C[C@@H](CC(C)(C)C)C3)on2)c(Cl)c1` [Example F-676]: the EC50 on human RORγ (read-out: LUC EC50 hRORg) and on mouse RORγ (read-out: LUC EC50 mRORg) was less than 3 µM in each case.
Regarding `CC(C)(C)C(F)(F)c1cc(-c2onc([C@H](CCC(=O)O)CC(=O)Nc3ccc(Cl)cc3F)c2C2CC2)no1` [Example E-80], the EC50 at human RORγ (read-out: LUC EC50 hRORg) and at mouse RORγ (read-out: LUC EC50 mRORg) was less than 3 µM throughout.
In the case of `Cc1ccc(NC(=O)[C@H]2C[C@@H](O)C[C@@H]2c2nnc([C@H]3C[C@@H](CC(C)C)C3)n2C2CC2)c(C)c1` [Example F-470], the EC50 at human RORγ (read-out: LUC EC50 (μM) hRORg) and at mouse RORγ (read-out: LUC EC50 (μM) mRORg) was less than 3 µM in each case.
As to `Cc1c(Cl)cccc1NC(=O)CCc1nnc(C(O)CC(C)C)n1C1CC1` (racemic) [Example F-182], the EC50 is greater than 3 µM at human RORγ (read-out: LUC EC50 (μM) hRORg) and less than 3 µM at mouse RORγ (read-out: LUC EC50 (μM) mRORg).
